We go through seven compounds from PubChem BioAssay AID1259411 (Chemical Carcinogenesis Research Information System (CCRIS), 2018).

Molecules are shown by their SMILES. Active and inactive are the calls of the source. The rule behind the calls is not given here.

This data set has as its system rodent carcinogenicity bioassays, tumor incidence. The data set is described as follows: CCRIS carcinogenicity studies. In short, it runs like this:
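Archive of carcinogenicity, mutagenicity, tumor promotion and tumor inhibition results drawn from journals, NCI reports and other sources, expert-reviewed; covers 1985-2011 and is no longer updated.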

As to `O=CCC=O`, the carcinogen call runs as follows: (Species: MOUSE, Strain/Sex: B6C3F1/FEMALE, Route: GAVAGE, Dose: 0, 60, 120 MG/KG IN DISTILLED WATER 5D/WK FOR 102 WK (STUDY DURATION: 105 WK), Dose: 0, 60, 120 MG/KG IN DISTILLED WATER 5D/WK FOR 102 WK (STUDY DURATION: 105 WK)) “inactive; negative”; (Species: MOUSE, Strain/Sex: B6C3F1/FEMALE, Route: INTRAPERITONEAL, Dose: 0, 1500 NMOL TOTAL DOSE, 1/3 AND 2/3 OF THE TOTAL DOSE ADMINISTERED AT 8 AND 15 DAYS OF AGE RESPECTIVELY, ANIMALS TERMIN) “inactive; negative”; (Species: MOUSE, Strain/Sex: B6C3F1/FEMALE, Route: INTRAPERITONEAL, Dose: 0, 3000 NMOL TOTAL DOSE, 1/3 AND 2/3 OF THE TOTAL DOSE ADMINISTERED AT 8 AND 15 DAYS OF AGE RESPECTIVELY, ANIMALS TERMIN) “inactive; negative”; (Species: MOUSE, Strain/Sex: B6C3F1/MALE, Route: GAVAGE, Dose: 0, 60, 120 MG/KG IN DISTILLED WATER 5D/WK FOR 102 WK (STUDY DURATION: 104 WK), Dose: 0, 60, 120 MG/KG IN DISTILLED WATER 5D/WK FOR 102 WK (STUDY DURATION: 104 WK)) “inactive; negative”; (Species: MOUSE, Strain/Sex: B6C3F1/MALE, Route: INTRAPERITONEAL, Dose: 0, 1500 NMOL TOTAL DOSE, 1/3 AND 2/3 OF THE TOTAL DOSE ADMINISTERED AT 8 AND 15 DAYS OF AGE RESPECTIVELY, ANIMALS TERMIN) “inactive; negative”; (Species: MOUSE, Strain/Sex: B6C3F1/MALE, Route: INTRAPERITONEAL, Dose: 0, 3000 NMOL TOTAL DOSE, 1/3 AND 2/3 OF THE TOTAL DOSE ADMINISTERED AT 8 AND 15 DAYS OF AGE RESPECTIVELY, ANIMALS TERMIN) “inactive; negative”. The carcinogen call runs as follows: (Species: RAT, Strain/Sex: F344/FEMALE, Route: GAVAGE, Dose: 0, 50, 100 MG/KG IN DISTILLED WATER 5D/WK FOR 102 WK (STUDY DURATION: 105 WK), Dose: 0, 50, 100 MG/KG IN DISTILLED WATER 5D/WK FOR 102 WK (STUDY DURATION: 105 WK), Tumor Site: Type of Lesion: THYROID GLAND: FOLLICULAR CELL ADENOMA, THYROID GLAND: FOLLICULAR CELL ADENOMA OR CARCINOMA) “active; positive”; (Species: RAT, Strain/Sex: F344/MALE, Route: GAVAGE, Dose: 0, 50, 100 MG/KG IN DISTILLED WATER 5D/WK FOR 102 WK (STUDY DURATION: 104 WK), Dose: 0, 50, 100 MG/KG IN DISTILLED WATER 5D/WK FOR 102 WK (STUDY DURATION: 104 WK), Tumor Site: Type of Lesion: THYROID GLAND: FOLLICULAR CELL ADENOMA OR CARCINOMA, PANCREATIC ISLETS: ISLET CELL ADENOMA, PANCREATIC ISLETS: ISLET CEL, Tumor Site: Type of Lesion: THYROID GLAND: FOLLICULAR CELL ADENOMA OR CARCINOMA, PANCREATIC ISLETS: ISLET CELL ADENOMA, PANCREATIC ISLETS: ISLET CEL) “active; positive”.

Turning to `CC1=C2C(=CO[C@H](C)[C@H]2C)C(=O)C(C(=O)O)=C1O`, the carcinogen call is “inactive; negative” (Species: MOUSE, Strain/Sex: DDD/MALE, Route: ORAL, Dose: 0, 100, 200 PPM IN DIET FOR 70 WK (STUDY DURATION: 70 WK), Dose: 0, 100, 200 PPM IN DIET FOR 70 WK (STUDY DURATION: 70 WK)); “active; positive” (Species: RAT, Route: DIET, Dose: 0, 0.1%, FOR 32 WK, Tumor Site: Type of Lesion: KIDNEY: ADENOMA, ADENOCARCINOMA); “active; positive” (Species: RAT, Strain/Sex: F344/MALE, Route: ORAL, Dose: 0.1% IN DIET FOR 80 WK, Tumor Site: Type of Lesion: KIDNEY: CLEAR CELL ADENOMA).

Take `CN1CCCC1=O`: the carcinogen call reads like this: (Species: MOUSE, Strain/Sex: B6C3F1/FEMALE, Route: ORAL, Dose: 0, 600, 1200, 7200 PPM IN DIET FOR 18 MO (STUDY DURATION: 18 MO), Dose: 0, 600, 1200, 7200 PPM IN DIET FOR 18 MO (STUDY DURATION: 18 MO), Tumor Site: Type of Lesion: LIVER: HEPATOCELLULAR ADENOMA, HEPATOCELLULAR CARCINOMA) “active; positive”; (Species: MOUSE, Strain/Sex: B6C3F1/MALE, Route: ORAL, Dose: 0, 600, 1200, 7200 PPM IN DIET FOR 18 MO (STUDY DURATION: 18 MO), Dose: 0, 600, 1200, 7200 PPM IN DIET FOR 18 MO (STUDY DURATION: 18 MO), Tumor Site: Type of Lesion: LIVER: HEPATOCELLULAR ADENOMA, HEPATOCELLULAR CARCINOMA) “active; positive”; (Species: RAT, Strain/Sex: CD-1/FEMALE, Route: INHALATION, Dose: 0, 0.04, 0.4 MG/L 6 HR/D 5D/WK FOR 2 YR (STUDY DURATION: 2 YR), Dose: 0, 0.04, 0.4 MG/L 6 HR/D 5D/WK FOR 2 YR (STUDY DURATION: 2 YR)) “inactive; negative”; (Species: RAT, Strain/Sex: CD-1/FEMALE, Route: ORAL, Dose: 0, 1600, 5000, 15000 PPM IN DIET FOR 2 YR (STUDY DURATION: 2 YR), Dose: 0, 1600, 5000, 15000 PPM IN DIET FOR 2 YR (STUDY DURATION: 2 YR)) “inactive; negative”; (Species: RAT, Strain/Sex: CD-1/MALE, Route: INHALATION, Dose: 0, 0.04, 0.4 MG/L 6 HR/D 5D/WK FOR 2 YR (STUDY DURATION: 2 YR), Dose: 0, 0.04, 0.4 MG/L 6 HR/D 5D/WK FOR 2 YR (STUDY DURATION: 2 YR)) “inactive; negative”; (Species: RAT, Strain/Sex: CD-1/MALE, Route: ORAL, Dose: 0, 1600, 5000, 15000 PPM IN DIET FOR 2 YR (STUDY DURATION: 2 YR), Dose: 0, 1600, 5000, 15000 PPM IN DIET FOR 2 YR (STUDY DURATION: 2 YR)) “inactive; negative”.

Regarding `CC(=O)CNCC(O)C(O)N=O` (stereo unspecified), the carcinogen call (Species: RAT, Strain/Sex: F344/FEMALE, Route: ORAL, Dose: 0, 15, 60 MG/L DRINKING WATER 5 D/WK FOR 31, 24 WK (TOTAL DOSE 47; 144 MG) (STUDY DURATION: LIFESPAN), Dose: 0, 15, 60 MG/L DRINKING WATER 5 D/WK FOR 31, 24 WK (TOTAL DOSE 47; 144 MG) (STUDY DURATION: LIFESPAN), Tumor Site: Type of Lesion: ESOPHAGUS: CARCINOMA, PAPILLOMA, FORESTOMACH: CARCINOMA, PAPILLOMA, LUNG: TUMOR, TONGUE: CARCINOMA, PAPILLOMA, Tumor Site: Type of Lesion: ESOPHAGUS: CARCINOMA, PAPILLOMA, FORESTOMACH: CARCINOMA, PAPILLOMA, LUNG: TUMOR, TONGUE: CARCINOMA, PAPILLOMA) is “active; positive”.

With `O=[N+]([O-])C1=Cc2cccc3cccc(c23)O1`, under “Species: RAT, Strain/Sex: WISTAR/MALE, Route: SUBCUTANEOUS, Dose: 0, 0.5 MG IN DMSO 1/WK FOR DURATION OF STUDY (TOTAL DOSE: 0; 19.5 MG) (STUDY DURATION: 271 D), Dose: 0, 0.5 MG IN DMSO 1/WK FOR DURATION OF STUDY (TOTAL DOSE: 0; 19.5 MG) (STUDY DURATION: 271 D), Tumor Site: Type of Lesion: INJECTION SITE: FIBROSARCOMA”, the carcinogen call was “active; positive”.

For `COc1ccc(-c2ccccc2)cc1NNC(=O)OC(C)C`, the carcinogen call is “inactive; negative; purity 92.5%” (Species: Mouse, Strain/Sex: B6C3F1/Female (50/group), Route: Oral, Dose: 0, 10, 100, 175 ppm in diet for 78 wks, Dose: 0, 10, 100, 175 ppm in diet for 78 wks); “inactive; negative; purity 92.5%” (Species: Rat, Strain/Sex: Sprague-Dawley/Female (60/group), Route: Oral, Dose: 0, 20, 80, 160 ppm in diet for 104 wks, Dose: 0, 20, 80, 160 ppm in diet for 104 wks); “inactive; negative; purity 92.5%” (Species: Rat, Strain/Sex: Sprague-Dawley/Male (60/group), Route: Oral, Dose: 0, 20, 80, 200 ppm in diet for 104 wks, Dose: 0, 20, 80, 200 ppm in diet for 104 wks).

On to `COc1cc(/C=C/C(=O)CC(=O)/C=C/c2ccc(O)c(OC)c2)ccc1O`, for which the carcinogen call (Species: MOUSE, Strain/Sex: B6C3F1/FEMALE, Route: ORAL, Dose: 0, 2000, 10000, 50000 PPM IN FEED FOR 104 WK (STUDY DURATION: 104 WK), Dose: 0, 2000, 10000, 50000 PPM IN FEED FOR 104 WK (STUDY DURATION: 104 WK), Tumor Site: Type of Lesion: LIVER: HEPATOCELLULAR ADENOMA, HEPATOCELLULAR ADENOMA OR CARCINOMA) is recorded as “equivocal”; the carcinogen call (Species: MOUSE, Strain/Sex: B6C3F1/MALE, Route: ORAL, Dose: 0, 2000, 10000, 50000 PPM IN FEED FOR 104 WK (STUDY DURATION: 104 WK), Dose: 0, 2000, 10000, 50000 PPM IN FEED FOR 104 WK (STUDY DURATION: 104 WK), Tumor Site: Type of Lesion: LIVER: HEPATOCELLULAR ADENOMA, HEPATOCELLULAR ADENOMA OR CARCINOMA, SMALL INTESTINE: CARCINOMA) is recorded as “equivocal”; the carcinogen call (Species: RAT, Strain/Sex: F344/FEMALE, Route: ORAL, Dose: 0, 2000, 10000, 50000 PPM IN FEED FOR 104 WK (STUDY DURATION: 104 WK), Dose: 0, 2000, 10000, 50000 PPM IN FEED FOR 104 WK (STUDY DURATION: 104 WK), Tumor Site: Type of Lesion: CLITORAL GLAND: ADENOMA, ADENOMA OR CARCINOMA) is on record as “equivocal”; the carcinogen call (Species: RAT, Strain/Sex: F344/MALE, Route: ORAL, Dose: 0, 2000, 10000, 50000 PPM IN FEED FOR 104 WK (STUDY DURATION: 104 WK), Dose: 0, 2000, 10000, 50000 PPM IN FEED FOR 104 WK (STUDY DURATION: 104 WK)) is “inactive; negative”.
